According to US5679828A (priority 1995, dated 1997):
Where two headings read alike, the source gives them in different places.

Tests used:
HIV-1 [1] = assay: HIV-1 replication in acutely infected H9 lymphocytes (p24 antigen ELISA); assay type: cell-based, HIV-1 (IIIB isolate); set-up: TI50: unit not given beside the values
Description: The cell lines were used in experiments only when in the logarithmic phase of growth, whereas uninfected peripheral blood mononuclear cells (PBMCs) were first stimulated with PHA (1 μg/mL) for three days. […] The cell lines and PBMCs were washed thoroughly to remove unadsorbed virions and resuspended at 4×10^5 cells/ml in complete medium or complete medium with 10% v/v interleukin 2 (IL-2), respectively. One ml. aliquots were placed into wells of 24-well culture plates containing an equal volume of test compounds (diluted in the appropriate culture medium). The toxicity of each compound was assessed by determining the number of compound-exposed uninfected cells that remained after four days at 37° C. and 5% CO2. A p24 antigen ELISA assay was used to determine the level of virus released in the medium of the HIV-infected cultures. The p24 antigen assay used a HIV-1 anti-p24 specific monoclonal antibody as the capture antibody coated onto 96-well plates. […] P24 in the culture medium was quantitated against a standard curve containing known amounts of p24. The effective (EC50) and inhibitory (IC50) concentrations for anti-HIV activity and cytotoxicity, respectively, were determined.
^a Concentration which inhibits viral replication in H9 cells by 50%

HIV-1 [2] = conditions: cited from earlier work
[3] = system: HIV induced membrane fusion; assay: cells; assay type: cell-based, HIV-1LAI; conditions: for IC100: Human immunodeficiency virus 1, CEM-4, 24 h, read-out: Fusion Assay IC100
Description: (§1) MOLT-4 cells (7×10^4) were incubated with HIV-1LAI chronically infected CEM cells (10^4) in 96-well half-area flat-bottomed plates (Costar) in 100 microliters culture medium were incubated with the cell mixtures at 37° C. for 24 hours. Multinucleated syncytia were enumerated by microscopic examination of the entire contents of each well.

HIV-1 [4] = assay: HIV-1 replication in PHA-stimulated PBMCs (p24 antigen ELISA); assay type: cell-based, HIV-1 (IIIB isolate); set-up: TI50: unit not given beside the values; conditions: for EC50: Human immunodeficiency virus 1, PBMC; for T.I. values in PBMCs compared with H9 cells: PBMCs versus H9 cells; for TI50: Table 2, PBMCs
Description: The T cell line, H9, and the promonocytic cell line, U937, were maintained separately in continuous culture with complete medium (RPMI 1640 with 10% fetal calf serum) at 5% CO2 and 37° C. The cell lines were used in experiments only when in the logarithmic phase of growth, whereas uninfected peripheral blood mononuclear cells (PBMCs) were first stimulated with PHA (1 μg/mL) for three days. All cell targets were incubated with HIV-1 (IIIB isolate, TCID50 10^4 IU/ml, at a multiplicity of infection of 0.01-0.01 IU/cell) for one hour at 37° C. and 5% CO2. The cell lines and PBMCs were washed thoroughly to remove unadsorbed virions and resuspended at 4×10^5 cells/ml in complete medium or complete medium with 10% v/v interleukin 2 (IL-2), respectively. One ml. aliquots were placed into wells of 24-well culture plates containing an equal volume of test compounds (diluted in the appropriate culture medium). The toxicity of each compound was assessed by determining the number of compound-exposed uninfected cells that remained after four days at 37° C. and 5% CO2. A p24 antigen ELISA assay was used to determine the level of virus released in the medium of the HIV-infected cultures. The p24 antigen assay used a HIV-1 anti-p24 specific monoclonal antibody as the capture antibody coated onto 96-well plates. Following a sample incubation period, rabbit serum containing antibodies for HIV-1 p24 was used to tag any p24 "captured: onto the microtiter well surface. Peroxidase conjugated goat anti-rabbit serum was then used to tag HIV-1 p24 specific rabbit antibodies that had complexed with captured p24. […] The cutoff for the p24 ELISA assay was 12.5 pg/ml. P24 in the culture medium was quantitated against a standard curve containing known amounts of p24. The effective (EC50) and inhibitory (IC50) concentrations for anti-HIV activity and cytotoxicity, respectively, were determined.

[5] = molecular target: T1, HIV-1 reverse transcriptase (Human immunodeficiency virus type 1 group M subtype B, UniProt P04585); assay: HIV-1 reverse transcriptase assay; assay type: biochemical, HIV-1 IIIB
T1 construct: virion associated HIV-1 IIIB reverse transcriptase; endogenous in cells; host or cells: HIV-1 IIIB virions lysed in Triton X-100
Description: Ten microliters of virion associated HIV-1 IIIB reverse transcriptase in 1% Triton X-100 was mixed with 50 microliters of a reaction cocktail containing 50 mM Tri-HCl (pH 7.8), 75 mM KCl, 2 mM dithiothreitol, 5 mM MgCl2, 5 mg/ml poly (A) [Pharmacia], 0.25 unit/ml oligo(dT)[Pharmacia]; 0.05% Nonidet P40 and 10 mCi/ml ^32 P-dTTP in the presence of various concentrations of test compound. After incubating for one hour at 37° C., 40 microliters of the reaction mixture was applied to a Schleicher & Schuell NA 45 membrane saturated with […] (0.3M NaCl, 30 mM sodium citrate, pH 7.0) in a Schleicher & Schuell Minifold over one sheet of GB003 filter paper. Each well of the minifold was washed four times with 2×SSC. Autoradiography was performed, and radioactivity was quantified with a Packard Matrix (Meriden, Conn.) 9600 direct beta counter.

[6] = system: cells of the fusion assay; assay: Cytotoxicity noted in the fusion assay; assay type: cell-based; conditions: Table 1 footnotes; one-day fusion assay
Description: as §1, with “Cell fusions were performed as described in Matthews et al., Proc. Natl. Acad. Sci. USA, 1987, 84, 5424-5428. MOLT-4” for “MOLT-4”
^d No noticeable cytotoxicity at 100 μg/mL
^e Toxic to the cells at 80 μg/mL in oneday fusion assay
^f Toxic at 40 μg/mL under the assay conditions

[7] = Human immunodeficiency virus 1, H9, Table 1, inhibits viral replication in H9 cells by 50%, read-out: EC50
[8] = Human immunodeficiency virus 1, Lymphocyte, acutely infected H9 lymphocytes
[9] = Table 1, H9 cells, therapeutic index
[10] = acutely infected H9 lymphocytes
[11] = PHA-stimulated PBMCs, read-out: EC50
[12] = Table 1, inhibit 50% of HIV-1 RT activity, read-out: HIV-RT Assay IC50
[13] = earlier data, H9 lymphocyte cells
[14] = earlier data, HIV-1 replication in H9 lymphocyte cells
[15] = Human immunodeficiency virus 1, Lymphocyte, Table 2, H9

Compound | EC50 (HIV-1 [1]; [7]) [nM] | T.I. (HIV-1 [1]; [9]) | IC100 [3] [µg/mL] | IC50 [5, 12] [nM] | cytotoxicity in fusion assay (footnotes d, e, f) [6] | other results
CC(C)[C@@H]1CC[C@]2(C(=O)O)CC[C@]3(C)[C@H](CC[C@@H]4[C@@]5(C)CC[C@H](OC(=O)C(C)(C)CC(=O)O)C(C)(C)[C@@H]5CC[C@]43C)[C@@H]12 [Compound 7, 3-O-(2',2'-dimethylsuccinyl)-dihydrobetulinic acid] | 560 | 13.8 | – | – | – | EC50 (HIV-1 [1]; [8]): 560 nM; T.I. (HIV-1 [1]; [10]): 13.8
CC1(C)Oc2ccc3ccc(=O)oc3c2[C@@H](OC(=O)[C@@]23CC[C@@](C)(C(=O)O2)C3(C)C)[C@H]1OC(=O)[C@@]12CC[C@@](C)(C(=O)O1)C2(C)C [DCK, 3',4'-di-O-(-)-camphanoyl-(+)-cis-khellactone] | – | – | – | – | – | therapeutic index (T.I.) (HIV-1 [2]; H9 lymphocyte cells, background): 136,719; EC50 (HIV-1 [2]; HIV replication in H9 lymphocyte cells, background): 0.4 nM
CC(C)[C@@H]1CC[C@]2(C(=O)O)CC[C@]3(C)[C@H](CC[C@@H]4[C@@]5(C)CC[C@H](OC(=O)CC(C)(C)CC(=O)O)C(C)(C)[C@@H]5CC[C@]43C)[C@@H]12 [Compound 9, 3-O-(3',3'-dimethylglutaryl)-dihydrobetulinic acid] | 5.7 | 1,017.0 | 20 | > 166000 | f (Toxic at 40 μg/mL under the assay conditions) | EC50 (HIV-1 [4]): 17.5 ng/mL; EC50 (HIV-1 [4]; [11]): 29.2 nM; T.I. values in PBMCs compared with H9 cells (HIV-1 [4]): lower than those in H9 cells; TI50 (HIV-1 [4]): 229
CC(=O)[C@@H]1CC[C@]2(C(=O)O)CC[C@]3(C)[C@H](CC[C@@H]4[C@@]5(C)CC[C@H](O)C(C)(C)[C@@H]5CC[C@]43C)[C@@H]12 [platanic acid] | – | – | – | – | – | T.I. (HIV-1 [2]; [13]): 14; EC50 (HIV-1 [2]; [14]): 6500 nM
C=C(C)[C@@H]1CC[C@]2(C(=O)O)CC[C@]3(C)[C@H](CC[C@@H]4[C@@]5(C)CC[C@H](OC(=O)COCC(=O)O)C(C)(C)[C@@H]5CC[C@]43C)[C@@H]12 [Compound 5, 3-O-diglycolyl-betulinic acid] | 10 | 1,172.0 | 40 | > 175000 | e (Toxic to the cells at 80 μg/mL in oneday fusion assay) | EC50 (HIV-1 [1]; [15]): 10 ng/mL; TI50 (HIV-1 [1]; Table 2, H9): 1,500
C=C(C)[C@@H]1CC[C@]2(C(=O)O)CC[C@]3(C)[C@H](CC[C@@H]4[C@@]5(C)CC[C@H](O)C(C)(C)[C@@H]5CC[C@]43C)[C@@H]12 [Compound 1, betulinic acid, reference compound] | 1400 | – | > 100 | > 219000 | – | EC50 (HIV-1 [2]; [14]): 1400 nM
CC(C)[C@@H]1CC[C@]2(C(=O)O)CC[C@]3(C)[C@H](CC[C@@H]4[C@@]5(C)CC[C@H](O)C(C)(C)[C@@H]5CC[C@]43C)[C@@H]12 [Compound 6, dihydrobetulinic acid, reference compound] | 900 | 14.0 | > 100 | – | – | IC50 [5]: > 218000 nM; T.I. (HIV-1 [2]; [13]): 14; EC50 (HIV-1 [2]; earlier data, anti-HIV activity, unit inferred): 900 nM
CC(C)[C@@H]1CC[C@]2(C(=O)O)CC[C@]3(C)[C@H](CC[C@@H]4[C@@]5(C)CC[C@H](OC(=O)CC(C)(C)C(=O)O)C(C)(C)[C@@H]5CC[C@]43C)[C@@H]12 [Compound 8, 3-O-(3',3'-dimethylsuccinyl)-dihydrobetulinic acid] | – | 14,000-98,000 | 20 | > 170000 | f (Toxic at 40 μg/mL under the assay conditions) | EC50 (HIV-1 [1]; [8]): < 0.017 nM; T.I. (HIV-1 [1]; [10]): more than 400,000; EC50 (HIV-1 [4]): 1.75 ng/mL; EC50 (HIV-1 [4]; [11]): 2.99 nM; T.I. values in PBMCs compared with H9 cells (HIV-1 [4]): lower than those in H9 cells; TI50 (HIV-1 [4]): 2,286
C=C(C)[C@@H]1CC[C@]2(C(=O)O)CC[C@]3(C)[C@H](CC[C@@H]4[C@@]5(C)CC[C@H](OC(=O)CC(C)(C)C(=O)O)C(C)(C)[C@@H]5CC[C@]43C)[C@@H]12 [Compound 3, 3-O-(3',3'-dimethylsuccinyl)-betulinic acid] | – | – | – | – | d (No noticeable cytotoxicity at 100 μg/mL) | EC50 (HIV-1 [1]; Human immunodeficiency virus 1, Lymphocyte): < 0.017 nM
C=C(C)[C@@H]1CC[C@]2(C(=O)O)CC[C@]3(C)[C@H](CC[C@@H]4[C@@]5(C)CC[C@H](OC(=O)CC(C)(C)CC(=O)O)C(C)(C)[C@@H]5CC[C@]43C)[C@@H]12 [Compound 4, 3-O-(3',3'-dimethylglutaryl)-betulinic acid] | – | – | 30 | > 167000 | d (No noticeable cytotoxicity at 100 μg/mL) | –
CC(C)[C@@H]1CC[C@]2(C(=O)O)CC[C@]3(C)[C@H](CC[C@@H]4[C@@]5(C)CC[C@H](OC(=O)COCC(=O)O)C(C)(C)[C@@H]5CC[C@]43C)[C@@H]12 [Compound 10, 3-O-diglycolyl-dihydrobetulinic acid] | 5.6 | 2,344.0 | 40 | > 174000 | e (Toxic to the cells at 80 μg/mL in oneday fusion assay) | EC50 (HIV-1 [1]; [15]): 3.2 ng/mL; TI50 (HIV-1 [1]; Table 2, H9): 2,344
C=C(C)[C@@H]1CC[C@]2(C(=O)O)CC[C@]3(C)[C@H](CC[C@@H]4[C@@]5(C)CC[C@H](OC(=O)C(C)(C)CC(=O)O)C(C)(C)[C@@H]5CC[C@]43C)[C@@H]12 [Compound 2, 3-O-(2',2'-dimethylsuccinyl)betulinic acid] | 2700 | 5.9 | 20 | > 171000 | d (No noticeable cytotoxicity at 100 μg/mL) | EC50 (HIV-1 [1]; [8]): 2700 nM; T.I. (HIV-1 [1]; [10]): 5.9; inhibition of syncytia formation, compounds 2 and 3 compared ([3]; compound 3 versus compound 2): inhibited syncytia formation at the same concentration
